The text below walks through data of patent publication US9376418B2, “Substituted pyridine spleen tyrosine kinase (SYK) inhibitors” (Merck Sharp & Dohme Corp., priority 2012, dated 2016).

For the assay, the target named is T1, recombinant human GST-SYK (Homo sapiens, UniProt P43405).
T1 construct: purchased Carna Biosciences 08-176
The experiment in a line: Homogeneous Time-Resolved Fluorescence (HTRF) assay for the recombinant human Syk enzyme. Type of assay: biochemical. As to conditions: HTRF assay, recombinant human GST-SYK; IC50 given as class symbols; read-out: rhSYK Activity. Put shortly:
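GST-hSYK ([…]) was preincubated with inhibitor (0.1% DMSO) for 10 min at room temperature in Tris-HCl pH 7.5 with tween 20 and DTT. Biotinylated peptide (250 nM), Mg (5 mM) and ATP (25 μM) were added for 45 min. The reaction was quenched with EDTA, and phosphotyrosine was read by Eu-antibody/SA-APC HTRF after 30 min.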
In the case of `Cc1cc(Nc2nccc(C(F)(F)F)n2)cc(-c2ccc(N3CCCC4(C3)OCCO4)nc2)c1` [Example 7.12, N-{3-[6-(1,4-dioxa-7-azaspiro[4.5]dec-7-yl)pyridin-3-yl]-5-methylphenyl}-4-(trifluoromethyl)pyrimidin-2-amine], the IC50 is 100 to 1000 nM.
The result for `Cc1cc(Nc2nccc(C(F)(F)F)n2)cc(-c2ccc(N3CCCC4(CCNC4=O)C3)nc2)c1` (stereo not drawn) [Example 7.13] reads 100 to 1000 nM.
The value for `Cc1cc(Nc2nccc(C(F)(F)F)n2)cc(-c2ccc(N3CCCC4(CCOC4=O)C3)nc2)c1` (stereo not drawn) [Example 7.14, 7-[5-(3-methyl-5-{[4-(trifluoromethyl)pyrimidin-2-yl]amino}phenyl)pyridin-2-yl]-2-oxa-7-azaspiro[4.5]decan-1-one] was 100 to 1000 nM.
Regarding `Cc1cc(Nc2nccc(C(F)(F)F)n2)cc(-c2ccc(N3CCC4(CCN(C)C4=O)CC3)nc2)c1` [Example 7.15, 2-methyl-8-[5-(3-methyl-5-{[4-(trifluoromethyl)pyrimidin-2-yl]amino}phenyl)pyridin-2-yl]-2,8-diazaspiro[4.5]decan-1-one], the IC50 is 100 to 1000 nM.
`Cc1cc(Nc2nccc(C(F)(F)F)n2)cc(-c2ccc(NCC3CCC(=O)N3)nc2)c1` (stereo not drawn) [Example 7.16, 5-({[5-(3-methyl-5-{[4-(trifluoromethyl)pyrimidin-2-yl]amino}phenyl)pyridin-2-yl]amino}methyl)pyrrolidin-2-one]: the IC50 is < 100 nM.
The value for `Cc1cc(Nc2nccc(C(F)(F)F)n2)cc(-c2ccc(NCC(O)C(F)F)nc2)c1` (stereo not drawn) [Example 7.17, 1,1-difluoro-3-{[5-(3-methyl-5-{[4-(trifluoromethyl)pyrimidin-2-yl]amino}phenyl)pyridin-2-yl]amino}propan-2-ol] was < 100 nM.
The result for `Cc1cc(Nc2nccc(C(F)(F)F)n2)cc(-c2ccc(NCCc3cnccn3)nc2)c1` [Example 7.18, N-(3-methyl-5-{6-[(2-pyrazin-2-ylethyl)amino]pyridin-3-yl}phenyl)-4-(trifluoromethyl)pyrimidin-2-amine] reads < 100 nM; that for `Cc1cc(Nc2nccc(C(F)(F)F)n2)cc(-c2ccc(NC(C)c3ccccn3)nc2)c1` (stereo not drawn) [Example 7.19, N-(3-methyl-5-{6-[(1-pyridin-2-ylethyl)amino]pyridin-3-yl}phenyl)-4-(trifluoromethyl)pyrimidin-2-amine], 100 to 1000 nM.
The result for `Cc1cc(Nc2nccc(C(F)(F)F)n2)cc(-c2ccc(NCc3cnn(C)c3)nc2)c1` [Example 7.20, N-[3-methyl-5-(6-{[(1-methyl-1H-pyrazol-4-yl)methyl]amino}pyridin-3-yl)phenyl]-4-(trifluoromethyl)pyrimidin-2-amine] reads 100 to 1000 nM.
As to `Cc1cc(Nc2nccc(C(F)(F)F)n2)cc(-c2ccc(NCc3ncnn3C)nc2)c1` [Example 7.21, N-[3-methyl-5-(6-{[(1-methyl-1H-1,2,4-triazol-5-yl)methyl]amino}pyridin-3-yl)phenyl]-4-(trifluoromethyl)pyrimidin-2-amine], the IC50 was < 100 nM.
The result for `Cc1cc(Nc2nccc(C(F)(F)F)n2)cc(-c2ccc(NC3CCNC3=O)nc2)c1` (stereo not drawn) [Example 7.22, 3-{[5-(3-methyl-5-{[4-(trifluoromethyl)pyrimidin-2-yl]amino}phenyl)pyridin-2-yl]amino}pyrrolidin-2-one] reads < 100 nM; that for `CCC(CO)Nc1ccc(-c2cc(C)cc(Nc3nccc(C(F)(F)F)n3)c2)cn1` (stereo not drawn) [Example 7.23, 2-{[5-(3-methyl-5-{[4-(trifluoromethyl)pyrimidin-2-yl]amino}phenyl)pyridin-2-yl]amino}butan-1-ol], < 100 nM; that for `Cc1cc(Nc2nccc(C(F)(F)F)n2)cc(-c2ccc(NCCc3cnc[nH]3)nc2)c1` [Example 7.24, N-[3-(6-{[2-(1H-imidazol-4-yl)ethyl]amino}pyridin-3-yl)-5-methylphenyl]-4-(trifluoromethyl)pyrimidin-2-amine], 100 to 1000 nM.
The result for `Cc1cc(Nc2nccc(C(F)(F)F)n2)cc(-c2ccc(NCc3cn(C)cn3)nc2)c1` [Example 7.25, N-[3-methyl-5-(6-{[(1-methyl-1H-imidazol-4-yl)methyl]amino}pyridin-3-yl)phenyl]-4-(trifluoromethyl)pyrimidin-2-amine] reads < 100 nM.
On to `Cc1cc(Nc2nccc(C(F)(F)F)n2)cc(-c2ccc(NCCN)nc2)c1` [Example 7.25A, N-[5-(3-methyl-5-{[4-(trifluoromethyl)pyrimidin-2-yl]amino}phenyl)pyridin-2-yl]ethane-1,2-diamine], for which the IC50 was < 100 nM.
For `Cc1cc(Nc2nccc(C(F)(F)F)n2)cc(-c2ccc(NCCCN)nc2)c1` [Example 7.26, N-[5-(3-methyl-5-{[4-(trifluoromethyl)pyrimidin-2-yl]amino}phenyl)pyridin-2-yl]propane-1,3-diamine], the IC50 is < 100 nM.
The result for `Cc1cc(Nc2nccc(C(F)(F)F)n2)cc(-c2ccc(N3CCNC(=O)CC3)nc2)c1` [Example 7.27, 1-[5-(3-methyl-5-{[4-(trifluoromethyl)pyrimidin-2-yl]amino}phenyl)pyridin-2-yl]-1,4-diazepan-5-one] reads < 100 nM; that for `CNC(=O)CN(C)c1ccc(-c2cc(C)cc(Nc3nccc(C(F)(F)F)n3)c2)cn1` [Example 7.28, N,N~2~-dimethyl-N~2~-[5-(3-methyl-5-{[4-(trifluoromethyl)pyrimidin-2-yl]amino}phenyl)pyridin-2-yl]glycinamide], < 100 nM; that for `CNC(=O)CNc1ccc(-c2cc(C)cc(Nc3nccc(C(F)(F)F)n3)c2)cn1` [Example 7.29, N-methyl-N~2~-[5-(3-methyl-5-{[4-(trifluoromethyl)pyrimidin-2-yl]amino}phenyl)pyridin-2-yl]glycinamide], < 100 nM.
The result for `Cc1cc(Nc2nccc(C(F)(F)F)n2)cc(-c2ccc(N(C)CCO)nc2)c1` [Example 7.30, 2-{methyl[5-(3-methyl-5-{[4-(trifluoromethyl)pyrimidin-2-yl]amino}phenyl)pyridin-2-yl]amino}ethanol] reads < 100 nM; that for `Cc1cc(Nc2nccc(C(F)(F)F)n2)cc(-c2ccc(NCC(N)=O)nc2)c1` [Example 7.31, N~2~-[5-(3-methyl-5-{[4-(trifluoromethyl)pyrimidin-2-yl]amino}phenyl)pyridin-2-yl]glycinamide], < 100 nM; that for `Cc1cc(Nc2nccc(C(F)(F)F)n2)cc(-c2ccc(N3CCC(C(N)=O)CC3)nc2)c1` [Example 7.32, 1-[5-(3-methyl-5-{[4-(trifluoromethyl)pyrimidin-2-yl]amino}phenyl)pyridin-2-yl]piperidine-4-carboxamide], < 100 nM.
The value for `Cc1cc(Nc2nccc(C(F)(F)F)n2)cc(-c2ccc(N3CCN(C)C(=O)C3)nc2)c1` [Example 7.33, 1-methyl-4-[5-(3-methyl-5-{[4-(trifluoromethyl)pyrimidin-2-yl]amino}phenyl)pyridin-2-yl]piperazin-2-one] was 100 to 1000 nM.
Turning to `Cc1cc(Nc2nccc(C(F)(F)F)n2)cc(-c2ccc(NC(C)(C)CO)nc2)c1` [Example 7.35, 2-methyl-2-{[5-(3-methyl-5-{[4-(trifluoromethyl)pyrimidin-2-yl]amino}phenyl)pyridin-2-yl]amino}propan-1-ol], the IC50 is 100 to 1000 nM.
The result for `Cc1cc(Nc2nccc(C(F)(F)F)n2)cc(-c2ccc(N3CC(O)C3)nc2)c1` [Example 7.36, 1-[5-(3-methyl-5-{[4-(trifluoromethyl)pyrimidin-2-yl]amino}phenyl)pyridin-2-yl]azetidin-3-ol] reads < 100 nM; that for `CC(=O)NCCNc1ccc(-c2cc(C)cc(Nc3nccc(C(F)(F)F)n3)c2)cn1` [Example 7.37, N-(2-{[5-(3-methyl-5-{[4-(trifluoromethyl)pyrimidin-2-yl]amino}phenyl)pyridin-2-yl]amino}ethyl)acetamide], < 100 nM.
The result for `Cc1cc(Nc2nccc(C(F)(F)F)n2)cc(-c2ccc(N(C)CC(=O)O)nc2)c1` [Example 7.39, N-methyl-N-[5-(3-methyl-5-{[4-(trifluoromethyl)pyrimidin-2-yl]amino}phenyl)pyridin-2-yl]glycine] reads < 100 nM; that for `Cc1cc(Nc2nccc(C(F)(F)F)n2)cc(-c2ccc(NCC(C)O)nc2)c1` (stereo not drawn) [Example 7.40, 1-{[5-(3-methyl-5-{[4-(trifluoromethyl)pyrimidin-2-yl]amino}phenyl)pyridin-2-yl]amino}propan-2-ol], < 100 nM.
The result for `Cc1cc(Nc2nccc(C(F)(F)F)n2)cc(-c2ccc(N(C)CCC3OCCO3)nc2)c1` [Example 7.41, N-[3-(6-{[2-(1,3-dioxolan-2-yl)ethyl](methyl)amino}pyridin-3-yl)-5-methylphenyl]-4-(trifluoromethyl)pyrimidin-2-amine] reads 100 to 1000 nM; that for `CNC(=O)C1CCN(c2ccc(-c3cc(C)cc(Nc4nccc(C(F)(F)F)n4)c3)cn2)CC1` [Example 7.42, N-methyl-1-[5-(3-methyl-5-{[4-(trifluoromethyl)pyrimidin-2-yl]amino}phenyl)pyridin-2-yl]piperidine-4-carboxamide], 100 to 1000 nM.
With `Cc1cc(Nc2nccc(C(F)(F)F)n2)cc(-c2ccc(NCCC(N)=O)nc2)c1` [Example 7.43, N~3~-[5-(3-methyl-5-{[4-(trifluoromethyl)pyrimidin-2-yl]amino}phenyl)pyridin-2-yl]-beta-alaninamide], the IC50 was < 100 nM.
The result for `Cc1cc(Nc2nccc(C(F)(F)F)n2)cc(-c2ccc(NCC(C)(C)O)nc2)c1` [Example 7.44, 2-methyl-1-{[5-(3-methyl-5-{[4-(trifluoromethyl)pyrimidin-2-yl]amino}phenyl)pyridin-2-yl]amino}propan-2-ol] reads < 100 nM.
The value for `CC(=O)N1CCN(c2ccc(-c3cc(C)cc(Nc4nccc(C(F)(F)F)n4)c3)cn2)CC1` [Example 7.45, N-{3-[6-(4-acetylpiperazin-1-yl)pyridin-3-yl]-5-methylphenyl}-4-(trifluoromethyl)pyrimidin-2-amine] was 100 to 1000 nM.
